Measured values reported in article PMC5438364, “A broad-spectrum bactericidal lipopeptide with anti-biofilm properties” (Scientific Reports, 2017).
Where a SMILES comes first, the peptide text is derived from it. [ ]: non-standard residue; d: D form. The star is where a group is joined. Myristoyl = CCCCCCCCCCCCCC(=O)*; 12Ado = NCCCCCCCCCCCC(=O)O

Legend:
[1] = system: S. aureus 29213; format: cell-based, Staphylococcus aureus
Method: (§1) Minimal inhibitory concentration (MIC) was determined using the microdilution assay. Mid-log-phase bacteria at 5 × 10^5 CFU/ml were incubated in a 96-well plate with serial two-fold dilutions of the tested compound for 18–24 hr at 37 °C (final volume of 200 µl). O.D. at 620 nm was measured (Synergy HT, BioTek Instruments, Winooski, VT, USA), and the MIC was determined as the lowest concentration for which no increase in O.D. was detected.

[2] = system: GPB and GNB; test: Effect observed at low concentrations, analog series; format: cell-based; conditions: summary of this and previous studies
Method: Table 2 Modulating biophysical properties of a core sequence by conjugating an N-terminal acyl. | column: Effect observed at low concentrations (<3 µM)

[3] = system: Enterococci; format: cell-based
Method: (§2) Staphylococci, Bacilli, Escherichia, Pseudomonas, Acinetobacter, Salmonella and Klebsiella species were grown in Luria Bertani broth (LB; 5 gr/l NaCl, 5 gr/l yeast extract, 10 gr/l tryptone). Enterococci and E. coli ML-35p were grown in Tryptic Soy Broth (TSB). Listeria and Streptococci were grown in Brain Heart Infusion (BHI). All bacteria were grown over-night at 37 °C with shaking. S. mutans 35668 plated on BHI agar for enumeration was grown for 48 hr. S. mutans UA159 was grown in 5% CO2 enriched atmosphere. Fusobacterium and Porphyromonas were grown in Wilkins-Chalgren growth medium and an anaerobic atmosphere.
as §1

[4] = system: Staphylococci; format: cell-based
Method: as §2, §1

[5] = system: Listeria; format: cell-based
Method: as §2, §1

[6] = system: Streptococci; format: cell-based
Method: as §2, §1

[7] = system: E. coli ML-35p; test: Bactericidal kinetics (time-kill); format: cell-based, Escherichia coli; conditions: within 2 hours exposure at ≥MIC; 5 × 10^5 CFU/ml, 37 °C
Method: (§3) Bactericidal kinetics was assessed by incubating 5 × 10^5 CFU/ml of mid-log-phase bacteria with the OAK for 3 hr at 37 °C with shaking. Aliquots were taken at t = 0, 0.5, 1, 2 and 3 hr, subjected to serial 10-fold dilutions in saline (NaCl = 0.85%) and plated for enumeration after 24–48 hr incubation at 37 °C.

[8] = system: cultivable oral microflora; test: Bacterial killing in whole human saliva; format: cell-based; conditions: within two minutes of exposure, 37 °C
Method: Bactericidal kinetics in saliva was assessed as follows. Whole saliva was pooled from two-three healthy volunteers at a time, after obtaining their informed consent. To test for specific activity against S. mutans, saliva was centrifuged for 5 min at 15,000 g and 4 °C, and the supernatant was spiked with 1 × 10^7 CFU/ml of mid-log-phase S. mutans 35668. Otherwise, activity against natural oral microflora was also performed on whole saliva. Saliva was mixed with the tested compound, incubated at 37 °C with shaking, and aliquots were taken at t = 0, 2, 5 and 10 min. Aliquots were subjected to serial 10-fold dilutions in saline and plated on BHI agar for enumeration.

[9] = Hydrophobicity by C18 RP-HPLC elution; format: physicochemical; conditions: chromatographic, RP-HPLC C18 (Vydac), flow 2 ml/min, linear acetonitrile gradient 1%/min
Method: OAKs were synthesized in-house (433 A Peptide Synthesizer; Applied Biosystems, Foster City, CA, USA) by the solid-phase method using 9-fluorenylmethyloxycarbonyl (Fmoc) active-ester chemistry on 4-methylbenzhydrylamine (MBHA) resin. OAKs were then deprotected and cleaved from the resin using trifluoroacetic acid:H2O (95:5) and purified to >95% chromatographic homogeneity by reverse phase high performance liquid chromatography (RP-HPLC) using C18 column (Vydac), a flow rate of 2 ml/min and a linear acetonitrile gradient of 1%/min (Alliance; Waters, Milford, MA, USA). Peaks identity was verified by mass-spectrometry (Xevo G2 Tof; Waters, Milford, MA, USA). Purified OAKs were then lyophilized and kept as dry powder at −20 °C.

[10] = system: E. coli 25922; format: cell-based, Escherichia coli
Method: as §1

[11] = system: S. mutans ATCC 35668; test: Bactericidal kinetics (time-kill); format: cell-based, Streptococcus mutans
Method: as §3

[12] = system: Klebsiella; format: cell-based
From the text: (§4) Gram-negative bacteria tested were: ATCC strains Escherichia coli 25922, 43894, Pseudomonas aeruginosa 27853, 9027, Acinetobacter baumannii 19606, A. caloaceticus 31299, Salmonella Typhimurium 14028, Fusobacterium nucleatum 23726, Porphyromonas gingivalis 53977, clinical isolates E. coli 14182, 14384, U-16327, U-16329, P. aeruginosa 1278, Klebsiella pneumoniae 1287, K2–224, C2, A. baumannii 1279, 1280, 1281, F. nucleatum PK 1594, the engineered E. coli ML-35p and the isogenic K-12 pair AG100, AG100a (ΔacrAB). Dental related bacteria (generous gift of Prof. Doron Steinberg and Gilad Bachrach from the Hebrew University of Jerusalem) appear in bold characters.
as §2, §1

[13] = system: Gram-negative bacteria (GNB); format: cell-based; conditions: 24 GNB strains (seven species)
From the text: as §4, §2, §1

[14] = system: Pseudomonas; format: cell-based; conditions: 3 strains; microdilution, LB, 18–24 hr, 37 °C; average of at least 2 independent experiments in duplicate
From the text: as §4, §2, §1

## CCCCCCCCCCCCCC(=O)N[C@@H](CCCCN)C(=O)N[C@@H](CCCCN)C(=O)NCCCCCCCCCCCC(=O)N[C@@H](CCCCN)C(N)=O [C14KKc12K] (Myristoyl-KK[12Ado]K-NH2)
[1]
  MIC: 3 µM
[2]
  Effect observed at low concentrations (<3 µM): High efficacy in membranes disruption leading to a bactericidal mode of action in both GPB & GNB
[3]
  MIC range: 3.12 to 6.25 µM
[4]
  MIC range: 1.56 to 3.12 µM
[5]
  MIC range: 3.12 µM
[6]
  MIC range: 0.78 to 3.12 µM
[7]
  reduction of viability: > 2 log-unit
[8]
  reduction of viability of cultivable oral microflora: > 99%
[9]
  H, hydrophobicity, defined as % acetonitrile eluent in C18 HPLC column: 54%
[10]
  MIC: 6 µM
[11]; time-kill kinetics in BHI
  bactericidal concentration: 1.56 µM
[11]; within 2 hours exposure to 1.56 µM, 5 × 10^5 CFU/ml, 37 °C
  reduction of viability: ~ 2 log units
[12]
  MIC range: 3.12 to 12.5 µM
[13]
  MIC50: 6 µM
[14]
  MIC range: 6.25 to 12.5 µM
